Source: article PMC4536990, “Efficacy of the antimicrobial peptide TP4 against Helicobacter pylori infection: in vitro membrane perturbation via micellization and in vivo suppression of host immune responses in a mouse model” (Oncotarget, 2015)
Each block holds one compound with its values, some of them ahead of it. Where a SMILES comes first, the peptide text is derived from it.

Columns and labels:
H. pylori CI-HC-028 [1] = assay: Time-dependent killing of multidrug resistant clinical isolate; assay type: cell-based, Helicobacter pylori; details: CI-HC-028, at MIC
Method: Control peptide and H. pylori alone were used as controls. The cultures were monitored for 24 h, and aliquots were taken at 1, 3, 6, 12, and 24 h for bacterial enumeration. The data are means ± SEM. […] Approximately, 1 × 10^5 cells were incubated for 1 h, and then incubated with the MIC of TP4, amoxicillin, metronidazole, or clarithromycin (AMOX, METZ, and CLRN, respectively). The cultures were monitored for 24 h, and aliquots taken at 1, 3, 6, 12, and 24 h to determine surviving c.f.u. The data are means ± SEM
Overnight cultures of H. pylori were scraped and adjusted to OD 0.05, and 1 ml/tube inocula were prepared with BHI broth. Solutions of TP4 or clinical antibiotics were prepared with concentrations corresponding to their respective MIC, and PBS was used as a control. The tubes were incubated without shaking at 37°C under microaerophilic conditions, and sample aliquots were taken at 0, 1, 3, 6, 12, and 24 hr. The samples were serially diluted, and appropriate dilutions were plated in triplicate onto blood agar plates for bacterial counts. The results were expressed as mean log (c.f.u. mL^−1) with standard error.

H. pylori = assay: Induction of drug resistance by sub-inhibitory passaging (in vitro / in vivo passage); assay type: cell-based, Helicobacter pylori; details: sub-inhibitory doses, 10 serial passages
Method: (§1) Animals were sacrificed at each passage, and the MIC of TP4, amoxicillin, metronidazole, and clarithromycin were recorded for 10 serial passages. Passage points in the curves are means ± SEM. (MICs: standard MIC value; MICp: passage-induced MIC). (B) In vitro dose-OD fall kinetics were examined for TP4 alone and in combination with amoxicillin, metronidazole, or clarithromycin. […] The data shown are means ± SEM of two independent experiments
The drug resistance of bacteria to TP4 and clinical antibiotics was determined by in vitro culturing of H. pylori in sub-inhibitory concentrations of TP4 and antibiotics, followed by repeated in vivo passaging. H. pylori was administered to C3H/HeN mice and allowed to colonize the gut; subsequently pure colonies of H. pylori were isolated on EYE selective media. This step was repeated for 10 passages. During each passage, the MICs of TP4 and the conventional antibiotics were determined. All procedures, care, and handling of mice were approved by the laboratory animal ethics committee of National Taiwan Ocean University.

[2] = system: metronidazole- and clarithromycin-resistant H. pylori strains; assay: Synergy of TP4 with antibiotics, in vitro dose-OD fall kinetics; assay type: cell-based, Helicobacter pylori; details: TP4 plus antibiotic
Method: as §1
Combination therapy often enhances antibiotic efficacy and mitigates the frequency at which drug resistance emerges. To determine the suitability of TP4 for combination therapy, we examined in vitro dose-OD fall kinetics of TP4 in combination with AMOX, CLRN, or METZ antibiotics; these three antibiotics are traditionally used as the first line of defense against H. pylori.

H. pylori 43504 = assay type: cell-based, Helicobacter pylori; details: 43504, 24 h
Method: (§2) H. pylori strains, American type cell cultures (ATCC) 43504, 51653, and 700392, and a clinical isolate CI-HC-028 (provided by Dr. Ming-Shiung Wu, Department of Internal Medicine, Gastrointestinal Hepatobilary Division, National Taiwan University Hospital, Taiwan) were used to determine the antimicrobial efficacy of TP4. Strains were cryopreserved at −80°C in brain heart infusion broth supplemented with 20% FBS. Bacteria were cultured under microaerobic conditions, as previously described. Briefly, bacteria were spread on brain heart infusion (BHI) agar plates supplemented with 10% (v/v) sheep blood, and plates were incubated at 37°C for 24 hr under a microaerobic atmosphere (Anaeropack-Anaero, Mitsubishi, Japan).
(§3) Frozen cultures were streaked onto BHI agar with 10% sheep blood, and incubated for 24 hr under microaerophilic conditions. H. pylori cells undergoing exponential growth were suspended in sterile phosphate-buffered saline (PBS), and adjusted to 0.05 OD using BHI broth; the resulting inoculum was dispensed onto a microtitre plate. Peptide TP4 was prepared at various concentrations (0.04 to 50 μg mL^−1) using PBS. Antibiotic resistant clinical isolate CI-HC-028 and three reference strains were used for susceptibility testing. All plates were incubated under microaerophilic conditions at 37°C overnight. The MIC was defined as the lowest concentration of the drug at which there was no visible growth. For quality control and comparative analyses, we examined the susceptibility of all four H. pylori strains to the antibiotics amoxicillin, clarithromycin, and metronidazole (Sigma Chemical Co., St. Louis, MO).

H. pylori 700392 = assay type: cell-based, Helicobacter pylori; details: 700392, 24 h
Method: as §2, §3

H. pylori CI-HC-028 [3] = assay type: cell-based, Helicobacter pylori; details: CI-HC-028, 24 h
Method: as §2, §3

H. pylori 43629 = assay type: cell-based, Helicobacter pylori; details: 43629, 24 h
C3H/HeN mice = assay: Dermal toxicity; assay type: in vivo; details: 48 hr post-exposure, after residue removal; 125 mg/kg TP4 or 20% SDS; n=12 per group
Method: (§4) Figure 11 TP4 toxicity safety evaluations in New Zealand albino rabbits and C3H/HeN mice (A) Eye irritation test: Ocular appearances of controls, and rabbits treated with TP4 or SDS for 7 days. […] (B) Dermal toxicity: appearances of the skin of mice treated with TP4 at 48 hr post-exposure.
(§5) Oral toxicity: Acute oral toxicity was assessed in C3H/HeN mice with 6 animals per group, by single oral administration of TP4 (125 mg/kg). After dose administration, the animals were kept under observation for a minimum of 48 hr. The mortality rate and clinical signs were recorded. Sub-acute oral toxicity was assessed by administering 600 μg dose/day for 14 days. During dose administration, the animals were observed every day for any signs of toxicity. After the treatment period, the animals were kept under observation for 14 days. The morbidity, mortality, and other clinical signs were recorded and assessed. Dermal Toxicity was assessed by topical application of TP4 at 10 times the effective dose to skin at the dorsal side of mice. After administration, the animals were kept under observation for a minimum of 48 h. Clinical signs were noted if the animals were in the morbid stage or presented with any abnormalities. Eye irritation test in New Zealand white rabbits: Healthy young adult rabbits were used in the experiment. Eyes were treated with TP4, PBS (vehicle control), or 0.1% SDS (positive control). A repeated dose of 1 mg/kg was administered every day for 7 days. During the treatment period, the eyes were examined on days 1, 3, 5, and 7, and allowed to recover until day 14. Clinical signs were recorded during the test period, and grades were assigned for ocular reactions observed during each examination. All procedures, care, and handling of rabbits were approved by the laboratory animal ethics committee of National Taiwan Ocean University.

[4] = system: New Zealand white rabbits; assay: Eye irritation test in rabbits (OECD 405); assay type: in vivo; details: for Abnormality iris grade / Chemosis grade / Conjunctivae Redness grade / Corneal opacity grade: OECD 405 grading
Method: as §4, §5

Structure (SMILES): Cc1ncc([N+](=O)[O-])n1CCO [metronidazole]
- course of cell count in time kill (H. pylori CI-HC-028 [1]; 24 h): initial decrease in cell count, but gradually lost activity
- drug resistance index MICp/MICs (H. pylori): gradually increased from passage 3 to the last passage
- reduction of the MIC of the antibiotic in combination with TP4 [2]: one-half

- MIC (H. pylori 43504): >12 µg/mL
- MIC (H. pylori 700392): >12 µg/mL
- MIC (H. pylori CI-HC-028 [3]): >12 µg/mL
- MIC (H. pylori 43629): >12 µg/mL
Structure (SMILES): CC[C@H](C)[C@H](NC(=O)[C@H](CC(C)C)NC(=O)[C@H](CCC(=O)O)NC(=O)[C@H](CCC(N)=O)NC(=O)[C@H](CC(C)C)NC(=O)[C@@H](NC(=O)[C@H](CCCCN)NC(=O)[C@H](CCC(N)=O)NC(=O)[C@@H](NC(=O)[C@@H](NC(=O)[C@H](CCC(=O)O)NC(=O)CNC(=O)[C@H](CO)NC(=O)[C@@H](NC(=O)[C@H](CCC(N)=O)NC(=O)[C@H](CCCCN)NC(=O)CNC(=O)[C@H](CCC(N)=O)NC(=O)[C@H](CC(C)C)NC(=O)[C@@H](N)CCC(N)=O)C(C)C)C(C)C)C(C)C)C(C)C)C(=O)N[C@@H](CCC(N)=O)C(=O)N[C@@H](CO)C(=O)N[C@H](C(=O)N[C@@H](C)C(=O)N[C@@H](CCCCN)C(=O)N1CCC[C@H]1C(N)=O)C(C)C [TP5] (H-QLQGKQVSGEVVQKVLQELIQSVAKP-NH2)

Structure (SMILES): CCCCCCCCCCCCOS(=O)(=O)[O-].[Na+] [SDS, reference compound]
- skin appearance, lesions (C3H/HeN mice): No obvious lesions
- Abnormality iris grade ([4]; Day 1): 0
- Chemosis grade ([4]; Day 1): 1.5
- Conjunctivae Redness grade ([4]; Day 1): 1
- Corneal opacity grade ([4]; Day 1, rabbit eye, daily for 7 days (TP4 1 mg/kg; SDS 0.1%)): 1
- Abnormality iris grade ([4]; Day 3): 0
- Chemosis grade ([4]; Day 3): 1.5
- Conjunctivae Redness grade ([4]; Day 3): 1
- Corneal opacity grade ([4]; Day 3): 1
- Abnormality iris grade ([4]; Day 5): 0
- Chemosis grade ([4]; Day 5): 2
- Conjunctivae Redness grade ([4]; Day 5): 1
- Corneal opacity grade ([4]; Day 5): 1
- Abnormality iris grade ([4]; Day 7): 0
- Chemosis grade ([4]; Day 7): 2
- Conjunctivae Redness grade ([4]; Day 7): 1
- Corneal opacity grade ([4]; Day 7): 1
- Abnormality iris grade ([4]; Recovery, Day 14): 0
- Chemosis grade ([4]; Recovery, Day 14): 1.5
- Conjunctivae Redness grade ([4]; Recovery, Day 14): 0.5
- Corneal opacity grade ([4]; Recovery, Day 14): 0.5
- ocular appearance ([4]; rabbits treated for 7 days, observed daily): severe lacrimation, swelling of the eyelids, and elevated blood vessels in conjunctivae

- MIC (H. pylori 43504): 8 to 12 µg/mL
- MIC (H. pylori 700392): 8 to 12 µg/mL
- MIC (H. pylori CI-HC-028 [3]): 8 to 12 µg/mL
- MIC (H. pylori 43629): 8 to 12 µg/mL
Structure (SMILES): CC[C@H](C)[C@H](NC(=O)[C@H](CC(C)C)NC(=O)[C@H](CO)NC(=O)[C@H](Cc1c[nH]cn1)NC(=O)[C@@H](NC(=O)[C@H](Cc1c[nH]cn1)NC(=O)[C@H](CCCCN)NC(=O)CNC(=O)[C@@H](NC(=O)[C@H](CO)NC(=O)[C@H](Cc1ccccc1)NC(=O)[C@H](CC(C)C)NC(=O)CNC(=O)CNC(=O)[C@@H](NC(=O)[C@@H](NC(=O)[C@H](Cc1c[nH]cn1)NC(=O)[C@H](Cc1c[nH]cn1)NC(=O)[C@@H](NC(=O)[C@@H](N)Cc1ccccc1)[C@@H](C)CC)[C@@H](C)CC)[C@@H](C)CC)C(C)C)[C@@H](C)CC)C(=O)N[C@@H](Cc1c[nH]cn1)C(=O)NCC(=O)N[C@@H](Cc1c[nH]cn1)C(N)=O [TP3] (H-FIHHIIGGLFSVGKHIHSLIHGH-NH2)

- MIC (H. pylori 43504): > 12 µg/mL
- MIC (H. pylori 700392): > 12 µg/mL
- MIC (H. pylori CI-HC-028 [3]): > 12 µg/mL
- MIC (H. pylori 43629): > 12 µg/mL
Structure (SMILES): CC(C)C[C@H](NC(=O)[C@@H](NC(=O)[C@H](CO)NC(=O)[C@H](CC(=O)O)NC(=O)[C@H](Cc1c[nH]c2ccccc12)NC(=O)[C@H](CC(=O)O)NC(=O)[C@@H](N)Cc1ccccc1)C(C)C)C(=O)N[C@@H](CCCCN)C(=O)NCC(=O)N[C@H](C(=O)N[C@@H](CCC(=O)O)C(=O)NCC(=O)N[C@@H](Cc1ccccc1)C(=O)N[C@H](C(=O)N[C@@H](CCCNC(=N)N)C(=O)NCC(=O)N[C@@H](Cc1ccc(O)cc1)C(=O)N[C@@H](Cc1ccccc1)C(N)=O)C(C)C)C(C)C [TP1] (H-FDWDSVLKGVEGFVRGYF-NH2)

Structure (SMILES): CC[C@H]1OC(=O)[C@H](C)[C@@H](O[C@H]2C[C@@](C)(OC)[C@@H](O)[C@H](C)O2)[C@H](C)[C@@H](O[C@@H]2O[C@H](C)C[C@H](N(C)C)[C@H]2O)[C@](C)(OC)C[C@@H](C)C(=O)[C@H](C)[C@@H](O)[C@]1(C)O [clarithromycin]
- time taken to 90% reduction of c.f.u. (H. pylori CI-HC-028 [1]): > 24 h
- drug resistance index MICp/MICs (H. pylori): gradually increased from passage 3 to the last passage
- reduction of the MIC of the antibiotic in combination with TP4 [2]: one-half
